Assay results reported in the supplement of paper PMC10307832.

Legend:
Experiment in all cases: relative viability (nuclei count vs DMSO), 5 days (fraction); higher = more cells survive
[1] = compound: C[C@H]([C@@H](C(=O)N)NC(=O)[C@@H]1CSSC[C@@H](C(=O)N[C@H](C(=O)N[C@@H](C(=O)N[C@H](C(=O)N1)CCCCN)CC2=CNC3=CC=CC=C32)CC4=CC=C(C=C4)O)NC(=O)[C@@H](CC5=CC=CC=C5)N)O [CAP-232] + O=C(CCCCCCC(=O)Nc1ccccc1)NO [Vorinostat] (partner 1 µM)
Summary of the method: (§1)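 A single step with final 0.05% Triton X-100, 1% formaldehyde and 1 ug/ml Hoechst fixed the cells and stained nuclei 5 days after treatment. Lung cancer cell lines in 1536-well plates had been treated by pin tool the day after seeding with one drug alone or a fixed anchor-drug dose plus five library-drug doses (not always all listed) in √10 steps, and nuclei were counted on 4× images. Relative viability is the ratio of nuclei in treated wells to nuclei in vehicle wells, taken as the median of duplicate plates.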

[2] = compound: C[C@H]([C@@H](C(=O)N)NC(=O)[C@@H]1CSSC[C@@H](C(=O)N[C@H](C(=O)N[C@@H](C(=O)N[C@H](C(=O)N1)CCCCN)CC2=CNC3=CC=CC=C32)CC4=CC=C(C=C4)O)NC(=O)[C@@H](CC5=CC=CC=C5)N)O [CAP-232] + NC(=O)Nc1cc(-c2cccc(F)c2)sc1C(=O)N[C@H]1CCCNC1 [AZD7762] (partner 0.2 µM)
Summary of the method: as §1

[3] = compound: C[C@H]([C@@H](C(=O)N)NC(=O)[C@@H]1CSSC[C@@H](C(=O)N[C@H](C(=O)N[C@@H](C(=O)N[C@H](C(=O)N1)CCCCN)CC2=CNC3=CC=CC=C32)CC4=CC=C(C=C4)O)NC(=O)[C@@H](CC5=CC=CC=C5)N)O [CAP-232] + CS(=O)(=O)CCNCc1ccc(-c2ccc3ncnc(Nc4ccc(OCc5cccc(F)c5)c(Cl)c4)c3c2)o1 [Lapatinib] (partner 2 µM)
Summary of the method: as §1

[4] = compound: C[C@H]([C@@H](C(=O)N)NC(=O)[C@@H]1CSSC[C@@H](C(=O)N[C@H](C(=O)N[C@@H](C(=O)N[C@H](C(=O)N1)CCCCN)CC2=CNC3=CC=CC=C32)CC4=CC=C(C=C4)O)NC(=O)[C@@H](CC5=CC=CC=C5)N)O [CAP-232] + CC(=O)Nc1cccc(-n2c(=O)n(C3CC3)c(=O)c3c(Nc4ccc(I)cc4F)n(C)c(=O)c(C)c32)c1 [Trametinib] (partner 0.02 µM)
Summary of the method: as §1

[5] = compound: C[C@H]([C@@H](C(=O)N)NC(=O)[C@@H]1CSSC[C@@H](C(=O)N[C@H](C(=O)N[C@@H](C(=O)N[C@H](C(=O)N1)CCCCN)CC2=CNC3=CC=CC=C32)CC4=CC=C(C=C4)O)NC(=O)[C@@H](CC5=CC=CC=C5)N)O [CAP-232]
Summary of the method: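 MetaXpress counted nuclei in 4× images of lung cancer cell lines that had been fixed, permeabilised and Hoechst-stained in one step. Before that, cells in 1536-well plates were kept overnight at 37 °C, pinned with five √10-spaced library-drug doses on vehicle-anchored plates, and cultured 5 days without medium change. Viability takes treated-well nuclei over vehicle-well nuclei and uses the median across plates. Plates were accepted only at control CV below 25% and at least one doubling.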

Cell Line | relative viability ([1]; first compound 0.4 µM) | relative viability ([1]; first compound 1.265 µM) | relative viability ([1]; first compound 4 µM) | relative viability ([1]; first compound 12.65 µM) | relative viability ([2]; first compound 0.4 µM) | relative viability ([2]; first compound 1.265 µM) | relative viability ([2]; first compound 4 µM) | relative viability ([2]; first compound 12.65 µM) | relative viability ([3]; first compound 0.4 µM) | relative viability ([3]; first compound 1.265 µM) | relative viability ([3]; first compound 4 µM) | relative viability ([3]; first compound 12.65 µM) | relative viability ([4]; first compound 0.4 µM) | relative viability ([4]; first compound 1.265 µM) | relative viability ([4]; first compound 4 µM) | relative viability ([4]; first compound 12.65 µM) | relative viability ([5]; 0.4 µM) | relative viability ([5]; 1.265 µM) | relative viability ([5]; 4 µM) | relative viability ([5]; 12.65 µM)
NCI-H23 | 0.578 | 0.534 | 0.558 | 0.54 | 0.286 | 0.236 | 0.239 | 0.22 | 0.949 | 1.03 | 1.07 | 0.828 | 0.339 | 0.435 | 0.439 | 0.28 | 1.09 | 0.853 | 0.949 | 0.931
NCI-H1395 | 1.11 |  | 0.79 | 0.573 | 0.511 |  | 0.423 | 0.224 | 1.01 | 0.933 | 1.09 | 0.911 | 1.17 |  | 1.06 | 1.1 | 1.05 | 0.846 | 0.995 | 0.925
NCI-H1666 | 1.09 | 1.06 | 1.19 | 0.856 | 0.918 | 0.882 | 0.859 | 0.908 | 0.687 |  | 0.65 | 0.378 | 0.699 | 0.859 | 0.924 | 0.734 | 0.927 | 0.913 | 1.02 | 0.871
NCI-H2405 | 1.22 | 1.09 | 1.01 | 0.79 | 0.822 | 0.8 | 0.765 | 0.524 | 1.03 | 0.99 | 1.12 | 0.722 | 0.416 | 0.673 | 0.558 | 0.447 | 1.01 | 0.972 | 1.05 | 0.786
HCC-78 | 0.47 | 0.489 | 0.388 | 0.441 | 0.747 | 0.612 | 0.591 | 0.713 | 0.809 | 0.338 | 0.878 | 0.695 | 0.688 | 0.824 | 0.918 | 0.727 | 1.16 | 0.947 | 1.14 | 0.992
NCI-H2170 | 0.823 | 0.835 | 0.886 | 0.794 | 0.915 | 0.907 | 0.906 | 0.846 | 0.274 | 0.281 | 0.255 | 0.272 | 0.977 | 0.918 | 1.05 | 1.08 | 0.986 | 0.971 | 1.16 | 1.02
NCI-H1793 | 0.947 | 0.703 | 0.728 | 0.653 | 0.437 | 0.618 | 0.518 | 0.524 | 0.563 | 0.625 | 0.75 | 0.745 | 0.342 | 0.396 | 0.356 | 0.493 | 1.01 | 0.911 | 0.869 | 0.917
HCC-366 | 0.32 | 0.345 | 0.418 | 0.323 | 0.399 | 0.328 | 0.308 | 0.374 | 1.17 | 1.05 | 1.02 | 1 | 0.365 | 0.419 | 0.327 | 0.349 | 0.988 | 0.964 | 1.04 | 1.09
NCI-H1651 | 0.632 | 0.55 | 0.577 | 0.551 | 0.487 | 0.429 | 0.553 | 0.481 | 0.944 | 0.834 | 0.913 | 0.484 | 0.902 | 0.803 | 0.836 | 0.784 | 1.04 | 0.954 | 1.01 | 0.773
LC-2-ad | 0.734 | 0.753 | 0.723 | 0.698 | 0.917 | 0.815 | 0.919 | 0.688 | 1.07 | 0.891 | 0.949 | 1.09 | 0.967 | 0.925 | 0.936 | 0.884 | 1.17 | 0.95 | 1.07 | 1.03
HCC-827 | 0.888 | 0.832 | 0.883 | 0.891 | 0.19 | 0.204 | 0.174 | 0.182 | 0.224 | 0.175 | 0.177 | 0.177 | 0.469 | 0.543 | 0.491 | 0.549 | 1.07 | 1.05 | 1.06 | 0.997
LOU-NH91 | 1.02 | 0.882 | 0.931 | 0.415 | 0.857 | 0.758 | 0.799 | 0.287 | 0.781 | 0.771 | 0.821 | 0.639 | 0.834 | 0.811 | 0.783 | 0.445 | 1.01 | 0.908 | 0.934 | 0.686
LU99A | 0.533 | 0.492 | 0.589 | 0.533 | 0.422 | 0.359 | 0.269 | 0.335 | 0.964 | 1.03 | 1.13 | 1.05 | 0.283 | 0.634 | 0.553 | 0.444 | 0.969 | 0.919 | 0.986 | 0.984
HOP-62 | 0.589 | 0.484 | 0.676 | 0.543 | 0.883 | 0.482 | 0.981 | 0.607 | 1.06 |  | 1.33 | 0.996 | 0.333 | 0.348 | 0.382 | 0.423 | 0.998 | 0.957 | 1.1 | 0.992
